Results as given in ChEMBL document CHEMBL1147627, “Synthesis of cinnamic acids and related isosteres as potent and selective alpha v beta 3 receptor antagonists” (Bioorg Med Chem Lett, 2004).
pIC50: −log10 of the molar value.

Columns and labels:
Integrin alpha-V/beta-3 [1] = molecular target: T1, Integrin alpha-V/beta-3 (Homo sapiens, UniProt P05106+P06756); test: Binding affinity towards alpha V/beta3 receptor by solid-phase receptor binding assays (SPRA); format: protein-complex assay
Integrin alpha-V/beta-1 = Integrin alpha-V/beta-1 (Homo sapiens, UniProt P05556+P06756); test: Binding affinity towards alpha V-beta1 receptor expressed in HEK293 cells; format: cell-based
Integrin alpha-V/beta-1, sequence (P05556 21-798 limits assumed): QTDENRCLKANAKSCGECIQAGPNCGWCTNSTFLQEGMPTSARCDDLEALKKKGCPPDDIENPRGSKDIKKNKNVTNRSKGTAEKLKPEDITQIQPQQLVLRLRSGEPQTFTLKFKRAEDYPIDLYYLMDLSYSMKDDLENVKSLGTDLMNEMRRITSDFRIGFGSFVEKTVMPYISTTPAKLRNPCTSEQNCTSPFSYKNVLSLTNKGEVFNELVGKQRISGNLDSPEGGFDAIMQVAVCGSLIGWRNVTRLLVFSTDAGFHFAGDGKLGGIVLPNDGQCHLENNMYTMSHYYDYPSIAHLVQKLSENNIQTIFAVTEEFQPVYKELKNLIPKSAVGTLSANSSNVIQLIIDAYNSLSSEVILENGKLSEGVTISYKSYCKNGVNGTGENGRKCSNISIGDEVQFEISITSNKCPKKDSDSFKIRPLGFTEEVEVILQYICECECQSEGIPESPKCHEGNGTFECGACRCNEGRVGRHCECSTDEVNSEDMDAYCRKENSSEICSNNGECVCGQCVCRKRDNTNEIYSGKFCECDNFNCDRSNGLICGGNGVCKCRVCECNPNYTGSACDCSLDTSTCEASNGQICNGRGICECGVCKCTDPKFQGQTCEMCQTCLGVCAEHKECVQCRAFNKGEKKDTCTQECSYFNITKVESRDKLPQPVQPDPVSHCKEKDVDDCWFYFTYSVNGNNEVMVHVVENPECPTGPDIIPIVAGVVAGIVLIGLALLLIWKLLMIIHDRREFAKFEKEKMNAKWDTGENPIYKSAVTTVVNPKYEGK
Integrin alpha-V/beta-1, sequence (P06756 31-889 limits assumed): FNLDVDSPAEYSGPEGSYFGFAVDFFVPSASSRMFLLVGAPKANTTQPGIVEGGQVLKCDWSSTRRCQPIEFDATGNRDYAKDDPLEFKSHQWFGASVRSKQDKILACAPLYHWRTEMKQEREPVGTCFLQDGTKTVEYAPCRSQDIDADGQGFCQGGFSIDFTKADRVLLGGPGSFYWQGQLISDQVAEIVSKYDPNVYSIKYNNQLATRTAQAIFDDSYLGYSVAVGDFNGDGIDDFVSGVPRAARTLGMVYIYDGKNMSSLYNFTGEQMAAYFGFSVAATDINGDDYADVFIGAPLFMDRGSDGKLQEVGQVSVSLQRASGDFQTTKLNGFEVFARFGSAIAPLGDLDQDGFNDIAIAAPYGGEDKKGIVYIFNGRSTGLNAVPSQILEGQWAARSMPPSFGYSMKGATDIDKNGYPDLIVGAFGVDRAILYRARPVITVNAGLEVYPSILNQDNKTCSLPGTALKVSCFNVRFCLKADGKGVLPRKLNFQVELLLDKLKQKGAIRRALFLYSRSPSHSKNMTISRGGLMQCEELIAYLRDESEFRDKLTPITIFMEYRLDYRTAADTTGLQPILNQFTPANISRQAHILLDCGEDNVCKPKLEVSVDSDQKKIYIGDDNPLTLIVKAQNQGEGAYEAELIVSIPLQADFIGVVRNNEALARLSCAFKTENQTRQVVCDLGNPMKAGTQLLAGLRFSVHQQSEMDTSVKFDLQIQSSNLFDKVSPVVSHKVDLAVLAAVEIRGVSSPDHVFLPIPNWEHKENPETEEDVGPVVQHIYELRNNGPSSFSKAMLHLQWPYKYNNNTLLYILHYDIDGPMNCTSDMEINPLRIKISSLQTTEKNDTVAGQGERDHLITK
Integrin alpha-V/beta-1, sequence (P06756 891-1048 limits assumed): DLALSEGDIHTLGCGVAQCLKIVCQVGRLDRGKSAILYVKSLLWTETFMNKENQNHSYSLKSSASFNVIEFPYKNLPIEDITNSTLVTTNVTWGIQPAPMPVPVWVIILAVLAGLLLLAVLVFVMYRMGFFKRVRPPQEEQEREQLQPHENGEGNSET

Integrin alpha-V/beta-3 [2] = molecular target: T1, Integrin alpha-V/beta-3; test: Binding affinity towards alpha V-beta3 receptor expressed in HEK293 cells; format: cell-based
Integrin alpha-V/beta-5 = Integrin alpha-V/beta-5 (Homo sapiens, UniProt P06756+P18084); test: Binding affinity towards alpha V-beta5 receptor expressed in HEK293 cells; format: cell-based
Integrin alpha-V/beta-5, sequence (P06756 31-889 limits assumed): as the sequence (P06756 31-889 limits assumed) above
Integrin alpha-V/beta-5, sequence (P06756 891-1048 limits assumed): as the sequence (P06756 891-1048 limits assumed) above
Integrin alpha-V/beta-5, sequence (P18084 24-799 limits assumed): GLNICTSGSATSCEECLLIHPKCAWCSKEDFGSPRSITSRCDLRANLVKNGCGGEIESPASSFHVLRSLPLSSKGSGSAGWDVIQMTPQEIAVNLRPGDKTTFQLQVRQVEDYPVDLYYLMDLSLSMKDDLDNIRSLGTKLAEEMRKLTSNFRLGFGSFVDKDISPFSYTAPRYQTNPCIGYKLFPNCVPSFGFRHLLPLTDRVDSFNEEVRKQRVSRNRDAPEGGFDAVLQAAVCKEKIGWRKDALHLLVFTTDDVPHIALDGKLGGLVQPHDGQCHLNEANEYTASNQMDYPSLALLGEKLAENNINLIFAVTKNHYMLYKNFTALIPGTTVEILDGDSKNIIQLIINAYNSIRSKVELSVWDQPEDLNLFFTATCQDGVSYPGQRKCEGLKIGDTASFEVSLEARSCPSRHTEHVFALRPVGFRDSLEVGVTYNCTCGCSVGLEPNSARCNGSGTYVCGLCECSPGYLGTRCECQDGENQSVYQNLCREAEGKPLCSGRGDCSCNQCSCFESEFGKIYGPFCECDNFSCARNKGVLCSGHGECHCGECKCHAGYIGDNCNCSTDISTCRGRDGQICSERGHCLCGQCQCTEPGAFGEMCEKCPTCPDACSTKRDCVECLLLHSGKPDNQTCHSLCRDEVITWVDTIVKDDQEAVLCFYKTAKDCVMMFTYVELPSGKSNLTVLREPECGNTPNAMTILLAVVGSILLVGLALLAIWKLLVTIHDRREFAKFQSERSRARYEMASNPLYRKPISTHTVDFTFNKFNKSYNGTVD

[3] = molecular target: Integrin alpha-IIb/beta-3 (Homo sapiens, UniProt P05106+P08514); test: Binding affinity towards alpha IIb/beta3 integrin by solid-phase receptor binding assay (SPRA); format: protein-complex assay
Integrin alpha-IIb/beta-3, sequence (P05106 27-788 limits assumed): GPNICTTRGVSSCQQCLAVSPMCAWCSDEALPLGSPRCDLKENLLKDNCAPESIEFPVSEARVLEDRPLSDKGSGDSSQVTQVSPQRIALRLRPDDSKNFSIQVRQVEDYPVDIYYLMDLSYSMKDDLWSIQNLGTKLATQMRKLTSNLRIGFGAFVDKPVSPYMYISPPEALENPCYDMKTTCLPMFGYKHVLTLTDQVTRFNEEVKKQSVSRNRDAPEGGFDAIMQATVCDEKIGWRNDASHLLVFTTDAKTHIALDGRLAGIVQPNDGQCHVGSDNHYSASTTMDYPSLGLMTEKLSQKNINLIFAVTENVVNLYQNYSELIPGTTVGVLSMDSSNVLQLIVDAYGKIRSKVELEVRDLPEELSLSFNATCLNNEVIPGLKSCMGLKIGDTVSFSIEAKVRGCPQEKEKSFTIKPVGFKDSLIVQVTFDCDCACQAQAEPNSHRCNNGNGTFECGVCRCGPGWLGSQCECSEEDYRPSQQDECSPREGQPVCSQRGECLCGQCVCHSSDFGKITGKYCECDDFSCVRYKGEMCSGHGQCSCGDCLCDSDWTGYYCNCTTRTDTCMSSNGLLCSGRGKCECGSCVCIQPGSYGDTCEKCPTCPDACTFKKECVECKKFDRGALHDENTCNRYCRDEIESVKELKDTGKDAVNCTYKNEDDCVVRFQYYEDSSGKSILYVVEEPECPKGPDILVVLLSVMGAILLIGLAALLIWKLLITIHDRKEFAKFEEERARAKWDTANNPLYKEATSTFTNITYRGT
Integrin alpha-IIb/beta-3, sequence (P08514 32-887 limits assumed): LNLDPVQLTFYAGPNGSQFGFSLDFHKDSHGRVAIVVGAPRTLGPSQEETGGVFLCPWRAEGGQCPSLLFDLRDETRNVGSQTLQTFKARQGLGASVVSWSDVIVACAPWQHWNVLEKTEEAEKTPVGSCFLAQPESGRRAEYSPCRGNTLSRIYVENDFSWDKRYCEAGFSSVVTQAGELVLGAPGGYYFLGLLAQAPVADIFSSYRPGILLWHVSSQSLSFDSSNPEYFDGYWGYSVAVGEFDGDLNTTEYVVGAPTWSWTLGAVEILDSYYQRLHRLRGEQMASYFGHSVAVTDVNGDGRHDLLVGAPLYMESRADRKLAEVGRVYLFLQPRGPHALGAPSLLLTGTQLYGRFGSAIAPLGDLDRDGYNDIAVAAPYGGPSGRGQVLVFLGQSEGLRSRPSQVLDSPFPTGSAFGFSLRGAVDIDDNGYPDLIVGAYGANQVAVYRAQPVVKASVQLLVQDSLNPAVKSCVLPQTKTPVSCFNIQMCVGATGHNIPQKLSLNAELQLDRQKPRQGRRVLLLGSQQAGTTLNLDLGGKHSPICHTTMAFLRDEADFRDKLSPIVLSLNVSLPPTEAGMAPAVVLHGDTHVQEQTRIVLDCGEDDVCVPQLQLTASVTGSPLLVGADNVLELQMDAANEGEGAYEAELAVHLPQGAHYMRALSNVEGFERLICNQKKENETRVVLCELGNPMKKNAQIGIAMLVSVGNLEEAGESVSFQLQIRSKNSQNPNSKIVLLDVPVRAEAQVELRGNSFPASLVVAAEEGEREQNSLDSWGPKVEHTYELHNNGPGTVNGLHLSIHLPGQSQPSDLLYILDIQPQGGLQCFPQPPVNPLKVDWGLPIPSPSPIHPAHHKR
Integrin alpha-IIb/beta-3, sequence (P08514 891-1039 limits assumed): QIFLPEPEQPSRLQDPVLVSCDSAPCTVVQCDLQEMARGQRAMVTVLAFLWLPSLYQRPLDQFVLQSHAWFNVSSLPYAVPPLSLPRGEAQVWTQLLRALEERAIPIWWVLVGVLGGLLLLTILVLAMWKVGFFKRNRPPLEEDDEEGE

T1 sequence (P05106 27-788 limits assumed): as the sequence (P05106 27-788 limits assumed) above
T1 sequence (P06756 31-889 limits assumed): as the sequence (P06756 31-889 limits assumed) above
T1 sequence (P06756 891-1048 limits assumed): as the sequence (P06756 891-1048 limits assumed) above

Row | pIC50 (Integrin alpha-V/beta-3 [1]) | pIC50 (Integrin alpha-V/beta-1) | pIC50 (Integrin alpha-V/beta-3 [2]) | pIC50 (Integrin alpha-V/beta-5) | pIC50 [3] | SMILES
1 | 8.92 | – | – | – | – | N=C(N)Nc1cccc(C(=O)Nc2ccc(/C=C/C(=O)O)c(C(=O)O)c2)c1
2 | – | 8.17 | 8.60 | 9.00 | – | CC(C)(C)OC(=O)NC(Cc1ccc(NC(=O)c2cccc(N=C(N)N)c2)cc1)C(=O)O (stereo not drawn)
3 | – | – | – | – | 4.60 | N=C(N)Nc1cccc(C(=O)Nc2cc(Cl)c(/C=C/C(=O)O)c(Cl)c2)c1
4 | – | 6.37 | 8.02 | 7.35 | – | N=C(N)Nc1cccc(C(=O)Nc2ccc(/C=C/C(=O)O)cc2F)c1
5 | 7.99 | – | – | – | 7.42 | COc1cc(/C=C/C(=O)O)ccc1NC(=O)c1cccc(NC(=N)N)c1
6 | 8.41 | 6.29 | 8.42 | 7.59 | 6.19 | O=C(O)/C=C/c1ccc(NC(=O)c2cccc(NC3=NCCCN3)c2)cc1Cl
7 | – | 7.74 | 9.70 | 8.09 | – | N=C(N)Nc1cccc(C(=O)Nc2ccc(CC(NS(=O)(=O)c3ccccc3)C(=O)O)cc2)c1 (stereo not drawn)
8 | 8.52 | – | – | – | – | CCc1cc(/C=C/C(=O)O)ccc1NC(=O)c1cccc(NC(=N)N)c1
9 | – | 6.12 | 7.96 | 6.87 | – | NC(N)=Nc1cccc(C(=O)Nc2ccc(CCC(=O)O)cc2)c1
10 | – | 7.54 | 9.01 | 8.51 | – | CS(=O)(=O)NC(Cc1ccc(NC(=O)c2cccc(N=C(N)N)c2)cc1)C(=O)O (stereo not drawn)
11 | – | 6.96 | 7.88 | 7.41 | – | N=C(N)Nc1cccc(C(=O)Nc2ccc(/C=C/C(=O)O)cc2)c1
12 | 7.64 | – | – | – | 7.35 | N=C(N)Nc1cccc(C(=O)Nc2ccc(/C=C/C(=O)O)c(Cl)c2)c1
13 | 9.80 | 9.17 | 9.46 | 9.39 | 6.00 | COc1cc(NC(=O)c2cccc(NC3=NCCCN3)c2)ccc1CC(NC(=O)OC(C)C)C(=O)O (stereo not drawn)
14 | – | 7.07 | 8.77 | 7.89 | – | O=C(O)/C=C/c1ccc(NC(=O)c2cccc(NC3=NCCCN3)c2)c(Cl)c1
15 | 7.51 | 6.47 | 7.19 | 6.83 | – | N=C(N)Nc1cccc(C(=O)Nc2ccc(C3CC3C(=O)O)cc2)c1 (stereo not drawn)
16 | – | 6.58 | 8.52 | 7.54 | – | Cc1cc(/C=C/C(=O)O)cc(C)c1NC(=O)c1cccc(NC2=NCCN2)c1
17 | – | 7.75 | 9.03 | 9.05 | – | CC(C)OC(=O)NC(Cc1ccc(NC(=O)c2cccc(NC3=NC(=O)CN3)c2)cc1)C(=O)O (stereo not drawn)
18 | 9.96 | 7.98 | 9.92 | 9.02 | 8.22 | O=C(Nc1ccc(CC(NS(=O)(=O)c2ccccc2)C(=O)O)cc1)c1cccc(NC2=NCCCN2)c1 (stereo not drawn)
19 | 9.57 | – | – | – | 7.90 | O=C(Nc1ccc(CC(NS(=O)(=O)c2ccccc2)C(=O)O)cc1)c1cccc(NC2=NCCN2)c1 (stereo not drawn)
20 | – | 6.49 | 7.40 | 7.16 | – | O=C(Nc1ccc(C2CC2C(=O)O)cc1)c1cccc(NC2=NCCCN2)c1 (stereo not drawn)
21 | 8.66 | – | – | – | 6.18 | COc1cc(NC(=O)c2cccc(NC3=NCCCN3)c2)ccc1/C=C/C(=O)O
22 | 8.70 | 6.66 | 8.74 | 8.12 | 6.28 | O=C(O)/C=C/c1ccc(NC(=O)c2cccc(NC3=NCCCN3)c2)cc1
23 | – | 7.22 | 8.77 | 8.02 | – | Cc1cc(/C=C/C(=O)O)ccc1NC(=O)c1cccc(NC2=NCCCN2)c1
24 | – | 6.30 | 7.71 | 7.31 | – | Cc1cc(NC(=O)c2cccc(NC(=N)N)c2)ccc1/C=C/C(=O)O
25 | – | 9.33 | 8.59 | 9.12 | 7.66 | CC(C)OC(=O)NC(Cc1ccc(NC(=O)c2cccc(N=C(N)N)c2)cc1)C(=O)O (stereo not drawn)
26 | – | 6.37 | 8.23 | 7.22 | – | N=C(N)Nc1cccc(C(=O)Nc2ccc(/C=C/C(=O)O)cc2Cl)c1
27 | – | 5.68 | 7.68 | 6.94 | – | Cc1cc(/C=C/C(=O)O)cc(C)c1NC(=O)c1cccc(NC(=N)N)c1

Row | SMILES | pIC50 (Integrin alpha-V/beta-3 [1]) | pIC50 (Integrin alpha-V/beta-1) | pIC50 (Integrin alpha-V/beta-3 [2]) | pIC50 (Integrin alpha-V/beta-5) | pIC50 [3]
28 | COc1cc(NC(=O)c2cccc(NC3=NCCCN3)c2)ccc1OCC(=O)O | 9.37 | 7.09 | 8.77 | 7.54 | –
29 | COc1cc(NC(=O)c2cccc(NC(=N)N)c2)ccc1CC(NC(=O)OC(C)C)C(=O)O (stereo not drawn) | 8.96 | 8.96 | 9.49 | 9.42 | –
30 | COc1cc(NC(=O)c2cccc(N=C(N)N)c2)ccc1OCC(=O)O | 8.49 | 6.65 | 8.37 | 6.99 | –
31 | O=C(O)CCc1ccc(NC(=O)c2cccc(NC3=NCCCN3)c2)cc1C(=O)O | 8.21 | – | – | – | –
32 | N=C(N)Nc1cccc(C(=O)Nc2ccc(OCC(=O)O)cc2)c1 | – | 6.45 | 7.92 | 6.84 | –
33 | CC(=O)NC(Cc1ccc(NC(=O)c2cccc(N=C(N)N)c2)cc1)C(=O)O (stereo not drawn) | – | 7.80 | 8.59 | 7.40 | –
34 | COc1cc(NC(=O)c2cccc(NC3=NCCCN3)c2)ccc1CCC(=O)O | 8.24 | 6.79 | 8.25 | 7.78 | –
35 | CC(C)(C)NC(=O)NC(Cc1ccc(NC(=O)c2cccc(N=C(N)N)c2)cc1)C(=O)O (stereo not drawn) | 8.49 | 8.32 | 8.54 | 8.52 | –
